Results from patent US20240307547A1, “NOVEL COMPOUNDS WHICH BIND TO CEREBLON, AND METHODS OF USE THEREOF” (Captor Therapeutics S.A., priority 2020, published 2024).
Blank lines part the entries; values can stand above or below the compound they belong to.

Experiments:
SALL4 = SALL4 degradation assay, Kelly cell line (western blot densitometry); format: cell-based; settings: Kelly cells, after 24 h
Protocol: Kelly cells were maintained in RPMI-1640 medium, supplemented with penicillin/streptomycin and 10% Fetal Bovine Serum (FBS). Cells were seeded on 6-well plates, and the compounds to be tested were added at the desired concentration range. Final DMSO concentration was 0.25%. After 24 h incubation (37° C., 5% CO2), cells were washed and cell lysates were prepared using RIPA lysis buffer. The amount of protein was determined via BCA assay, and the appropriate quantity was then loaded on the precast gel for the protein separation. After primary and secondary antibody staining, the membranes were washed and signals developed. The densitometry analysis was implemented to obtain the numeric values used later in the protein level evaluation process.
Densitometry values are normalized to the loading control (β-ACTIN) and presented as % of DMSO control in Table 2, below, using the following labels: • ≤25% for 0-25% of SALL4 protein reduction, • >25% for 26-74% of SALL4 protein reduction, • ≥75% for 75-100% of SALL4 protein reduction.

[1] = molecular target: CRBN-DDB1 protein complex (Homo sapiens, UniProt Q96SW2); assay: Fluorescence polarization (FP) assay, displacement of Cy5-labelled thalidomide; settings: read-out: CRBN binding Ki; further: 25 nM CRBN-DDB1
CRBN-DDB1 protein complex, sequence (Q96SW2 whole entry): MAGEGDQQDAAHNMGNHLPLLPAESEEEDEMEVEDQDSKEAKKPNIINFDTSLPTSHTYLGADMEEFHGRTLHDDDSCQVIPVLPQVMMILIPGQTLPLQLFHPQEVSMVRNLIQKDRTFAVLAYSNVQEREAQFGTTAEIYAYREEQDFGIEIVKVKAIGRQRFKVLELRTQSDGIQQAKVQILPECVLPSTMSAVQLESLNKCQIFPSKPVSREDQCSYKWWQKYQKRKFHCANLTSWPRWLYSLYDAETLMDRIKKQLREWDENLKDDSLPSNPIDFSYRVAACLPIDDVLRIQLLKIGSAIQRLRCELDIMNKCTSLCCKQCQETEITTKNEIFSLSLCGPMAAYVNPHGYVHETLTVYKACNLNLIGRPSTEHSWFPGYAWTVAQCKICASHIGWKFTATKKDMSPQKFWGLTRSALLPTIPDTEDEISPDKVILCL
CRBN-DDB1 protein complex, sequence (Q16531 whole entry partner): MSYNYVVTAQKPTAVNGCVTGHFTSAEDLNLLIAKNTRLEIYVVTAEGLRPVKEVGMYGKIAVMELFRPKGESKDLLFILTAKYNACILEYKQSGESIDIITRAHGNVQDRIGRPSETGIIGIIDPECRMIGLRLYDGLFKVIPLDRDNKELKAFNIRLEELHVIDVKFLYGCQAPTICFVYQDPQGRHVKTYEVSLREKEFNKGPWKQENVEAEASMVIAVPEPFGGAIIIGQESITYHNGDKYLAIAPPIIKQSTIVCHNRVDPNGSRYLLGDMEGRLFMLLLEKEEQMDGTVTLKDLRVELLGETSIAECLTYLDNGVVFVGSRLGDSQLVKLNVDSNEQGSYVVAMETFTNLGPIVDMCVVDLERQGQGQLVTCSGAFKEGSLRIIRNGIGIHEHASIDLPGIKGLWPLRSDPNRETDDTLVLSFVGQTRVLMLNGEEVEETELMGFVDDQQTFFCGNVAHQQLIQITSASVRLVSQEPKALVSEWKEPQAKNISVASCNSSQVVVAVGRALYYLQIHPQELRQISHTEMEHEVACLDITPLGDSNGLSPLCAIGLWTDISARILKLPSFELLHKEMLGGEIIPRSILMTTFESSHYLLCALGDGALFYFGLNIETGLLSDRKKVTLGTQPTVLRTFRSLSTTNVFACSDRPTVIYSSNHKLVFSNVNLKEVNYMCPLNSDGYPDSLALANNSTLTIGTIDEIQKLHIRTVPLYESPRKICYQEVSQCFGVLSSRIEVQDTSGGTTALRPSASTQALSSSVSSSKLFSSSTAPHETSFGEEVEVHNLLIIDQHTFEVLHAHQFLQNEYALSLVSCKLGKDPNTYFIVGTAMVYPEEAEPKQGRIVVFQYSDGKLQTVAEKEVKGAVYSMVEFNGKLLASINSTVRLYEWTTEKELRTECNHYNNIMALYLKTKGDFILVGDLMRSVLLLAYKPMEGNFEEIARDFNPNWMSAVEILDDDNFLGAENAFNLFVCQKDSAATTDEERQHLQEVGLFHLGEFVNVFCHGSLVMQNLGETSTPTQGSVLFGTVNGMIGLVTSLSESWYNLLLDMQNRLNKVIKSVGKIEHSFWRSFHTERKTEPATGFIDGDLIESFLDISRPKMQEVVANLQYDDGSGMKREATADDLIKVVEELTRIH
Protocol: The test solution was added to a 384-well assay plate.
The plate was spun-down (1 min, 1000 rpm, 22° C.) and then shaken using a VibroTurbulator for 10 min at room temperature (20-25° C.), with the frequency set to level 3. The assay plate with protein and the tracer was incubated for 60 min at room temperature (20-25° C.) prior to read-out with a plate reader.
The FP experiment was carried out with various concentrations of the test compounds in order to measure Ki values.

H929 (myeloma) = assay: Viability, CTG (CellTiter-Glo) assay; format: cell-based; settings: Homo sapiens, NCI-H929, H929, 72 hours, 100% = DMSO, read-out: Average of % viability of quadruplicate
Protocol: Three thousand cells in 50 μL of culture medium were plated in 384-well plate, and incubated with 50, 13, and 2 μM of each compound for 72 hours. ATP content in the remaining cells after the treatment was quantitated with the CellTiter-Glo Luminescent Viability Assay Kit (Promega). The activity of the compound at each concentration was shown as percentage viability; 100% viability was the ATP content in the cells incubated with DMSO, the carrier of the compounds.

IKZF1 = IKZF1 degradation assay, H929 cell line (western blot densitometry); format: cell-based; settings: H929 cells, after 24 h
Protocol: (§1) H929 cells were maintained in RPMI-1640 medium, supplemented with penicillin/streptomycin, 10% Fetal Bovine Serum (FBS) and 0.05 mM 2-Mercaptoethanol. Cells were seeded on 6- or 12-well plates, and the compounds to be tested were added at the desired concentration range. Final DMSO concentration was 0.25%. After 24 h incubation (37° C., 5% CO2), cells were harvested, washed and cell lysates were prepared using RIPA lysis buffer. The amount of protein was determined via BCA assay, and the appropriate quantity was then loaded on the precast gel for the protein separation. After primary and secondary Ab staining, the membranes were washed and signals developed. The densitometry analysis was implemented to obtain the numeric values used later in the protein level evaluation process.
Densitometry values are normalized to the loading control (β-ACTIN) and presented as % of DMSO control in Table 3, below, using the following labels: • ≤25% for 0-25% of IKZF1 protein reduction, • >25% for 26-74% of IKZF1 protein reduction, • ≥75% for 75-100% of IKZF1 protein reduction.

IKZF3 = IKZF3 degradation assay, H929 cell line (western blot densitometry); format: cell-based; settings: H929 cells, after 24 h
Protocol: as §1, with “penicillin/streptomycin and” for “penicillin/streptomycin,”
Densitometry values are normalized to the loading control (β-ACTIN) and presented as % of DMSO control in Tables 4A and 4B, below, using the following labels: • ≤25% for 0-25% of IKZF3 protein reduction, • >25% for 26-74% of IKZF3 protein reduction, • ≥75% for 75-100% of IKZF3 protein reduction.

SMILES: Cc1nc2cccc(N)c2c(=O)n1C1CCC(=O)NC1=O (stereo not drawn) [CC-122]
- % of SALL4 protein reduction (SALL4; at 1 μM): ≥75% (≥75% for 75-100% of SALL4 protein reduction)
- % of SALL4 protein reduction (SALL4; at 10 μM): ≥75% (≥75% for 75-100% of SALL4 protein reduction)
- % of SALL4 protein reduction (SALL4; at 20 μM): ≥75% (≥75% for 75-100% of SALL4 protein reduction)

- Ki [1]: 1000 to 5000 nM
SMILES: Cc1nc2cccc(N)c2cc1C1CCC(=O)NC1=O (stereo not drawn) [Compound 1, 3-(5-amino-2-methylquinolin-3-yl)piperidine-2,6-dione]
- % of SALL4 protein reduction (SALL4; at 1 μM): ≤25% (≤25% for 0-25% of SALL4 protein reduction)
- % of SALL4 protein reduction (SALL4; at 10 μM): >25% (>25% for 26-74% of SALL4 protein reduction)
- % of SALL4 protein reduction (SALL4; at 20 μM): >25% (>25% for 26-74% of SALL4 protein reduction)
- viability at 2 µM (H929 (myeloma); at 2 μM): 61.2%
- viability at 13 µM (H929 (myeloma); at 13 μM): 47.5%
- viability at 50 µM (H929 (myeloma); at 50 μM): 32.9%
- % of IKZF1 protein reduction (IKZF1; at 1 μM): >25% (>25% for 26-74% of IKZF1 protein reduction)
- % of IKZF1 protein reduction (IKZF1; at 10 μM): ≥75% (≥75% for 75-100% of IKZF1 protein reduction)
- % of IKZF1 protein reduction (IKZF1; at 20 μM): ≥75% (≥75% for 75-100% of IKZF1 protein reduction)
- % of IKZF3 (bottom band) protein reduction (IKZF3; at 1 μM): >25% (>25% for 26-74% of IKZF3 protein reduction)
- % of IKZF3 (upper band) protein reduction (IKZF3; at 1 μM): >25% (>25% for 26-74% of IKZF3 protein reduction)
- % of IKZF3 (bottom band) protein reduction (IKZF3; at 10 μM): ≥75% (≥75% for 75-100% of IKZF3 protein reduction)
- % of IKZF3 (upper band) protein reduction (IKZF3; at 10 μM): ≥75% (≥75% for 75-100% of IKZF3 protein reduction)
- % of IKZF3 (bottom band) protein reduction (IKZF3; at 20 μM): ≥75% (≥75% for 75-100% of IKZF3 protein reduction)
- % of IKZF3 (upper band) protein reduction (IKZF3; at 20 μM): ≥75% (≥75% for 75-100% of IKZF3 protein reduction)

- Ki [1]: 1000 to 5000 nM
SMILES: Cc1nc2cccc([N+](=O)[O-])c2cc1C1CCC(=O)NC1=O (stereo not drawn) [Compound 2, 3-(2-methyl-5-nitroquinolin-3-yl)piperidine-2,6-dione]

- Ki [1]: 1000 to 5000 nM
SMILES: Cc1nc2cccc(F)c2cc1C1CCC(=O)NC1=O (stereo not drawn) [Compound 3, 3-(5-fluoro-2-methylquinolin-3-yl)piperidine-2,6-dione]

- Ki [1]: 1000 to 5000 nM
SMILES: Cc1nc2c(cnn2C)cc1C1CCC(=O)NC1=O (stereo not drawn) [Compound 4, 3-(1,6-dimethyl-1H-pyrazolo[3,4-b]pyridin-5-yl)piperidine-2,6-dione]

- Ki [1]: 5000 to 10000 nM
SMILES: Cc1nc2ccc([N+](=O)[O-])cc2cc1C1CCC(=O)NC1=O (stereo not drawn) [Compound 5, 3-(2-methyl-6-nitroquinolin-3-yl)piperidine-2,6-dione]

- Ki [1]: 5000 to 10000 nM
SMILES: Cc1nc2cc([N+](=O)[O-])ccc2cc1C1CCC(=O)NC1=O (stereo not drawn) [Compound 6, 3-(2-methyl-7-nitroquinolin-3-yl)piperidine-2,6-dione]

- Ki [1]: 1000 to 5000 nM
SMILES: Cc1nc2c([N+](=O)[O-])cccc2cc1C1CCC(=O)NC1=O (stereo not drawn) [Compound 7, 3-(2-methyl-8-nitroquinolin-3-yl)piperidine-2,6-dione]

- Ki [1]: < 1000 nM
SMILES: Cc1nc2cc(N)ccc2cc1C1CCC(=O)NC1=O (stereo not drawn) [Compound 8, 3-(7-amino-2-methylquinolin-3-yl)piperidine-2,6-dione]

- Ki [1]: 1000 to 5000 nM
SMILES: Cc1nc2cc(C(=O)N[C@@H](C)C3CCCCC3)ccc2cc1C1CCC(=O)NC1=O (stereo partly drawn) [Compound 9, N—((S)-1-cyclohexylethyl)-3-(2,6-dioxopiperidin-3-yl)-2-methylquinoline-7-carboxamide]

- Ki [1]: < 1000 nM
SMILES: Cc1nc2c(N)cccc2cc1C1CCC(=O)NC1=O (stereo not drawn) [Compound 10, 3-(8-amino-2-methylquinolin-3-yl)piperidine-2,6-dione]

- Ki [1]: < 1000 nM
SMILES: Cc1nc2ccc(N)cc2cc1C1CCC(=O)NC1=O (stereo not drawn) [Compound 11, 3-(6-amino-2-methylquinolin-3-yl)piperidine-2,6-dione]

- Ki [1]: 1000 to 5000 nM
SMILES: O=C1CCC(c2cnc3cccc([N+](=O)[O-])c3c2)C(=O)N1 (stereo not drawn) [Compound 12, 3-(5-nitroquinolin-3-yl)piperidine-2,6-dione]

- Ki [1]: 1000 to 5000 nM
SMILES: Cc1nc2ccccc2cc1C1CCC(=O)NC1=O (stereo not drawn) [Compound 13, 3-(2-methylquinolin-3-yl)piperidine-2,6-dione]

- Ki [1]: < 1000 nM
SMILES: Nc1cccc2ncc(C3CCC(=O)NC3=O)cc12 (stereo not drawn) [Compound 14, 3-(5-aminoquinolin-3-yl)piperidine-2,6-dione]

- Ki [1]: < 1000 nM
SMILES: Cc1ccc(NC(=O)NCc2ccc3cc(C4CCC(=O)NC4=O)c(C)nc3c2)cc1Cl (stereo not drawn) [Compound 15, 1-(3-chloro-4-methylphenyl)-3-{[3-(2,6-dioxopiperidin-3-yl)-2-methylquinolin-7-yl]methyl}urea]

- Ki [1]: < 1000 nM
SMILES: Cc1nc2cc(CNC(=O)C(F)(F)c3ccc(Cl)cc3)ccc2cc1C1CCC(=O)NC1=O (stereo not drawn) [Compound 16, 2-(4-chlorophenyl)-N-{[3-(2,6-dioxopiperidin-3-yl)-2-methylquinolin-7-yl]methyl}-2,2-difluoroacetamide]

- Ki [1]: < 1000 nM
SMILES: Cc1nc2cccc(NS(=O)(=O)c3ccccc3OC(F)(F)F)c2cc1C1CCC(=O)NC1=O (stereo not drawn) [Compound 17, N-(3-(2,6-dioxopiperidin-3-yl)-2-methylquinolin-5-yl)-2-(trifluoromethoxy)benzenesulfonamide]

- Ki [1]: < 1000 nM
SMILES: Cc1nc2ccc(NS(=O)(=O)c3ccccc3OC(F)(F)F)cc2cc1C1CCC(=O)NC1=O (stereo not drawn) [Compound 18, N-(3-(2,6-dioxopiperidin-3-yl)-2-methylquinolin-6-yl)-2-(trifluoromethoxy)benzenesulfonamide]

- Ki [1]: < 1000 nM
SMILES: Cc1nc2cc(NS(=O)(=O)c3ccccc3OC(F)(F)F)ccc2cc1C1CCC(=O)NC1=O (stereo not drawn) [Compound 19, N-(3-(2,6-dioxopiperidin-3-yl)-2-methylquinolin-7-yl)-2-(trifluoromethoxy)benzenesulfonamide]

- Ki [1]: 1000 to 5000 nM
SMILES: Cc1nc2c(NS(=O)(=O)c3ccccc3OC(F)(F)F)cccc2cc1C1CCC(=O)NC1=O (stereo not drawn) [Compound 20, N-(3-(2,6-dioxopiperidin-3-yl)-2-methylquinolin-8-yl)-2-(trifluoromethoxy)benzenesulfonamide]

- Ki [1]: 1000 to 5000 nM
SMILES: Cc1nc2c(Cl)cccc2cc1C1CCC(=O)NC1=O (stereo not drawn) [Compound 21, 3-(8-chloro-2-methylquinolin-3-yl)piperidine-2,6-dione]

SMILES: O=C1CCC(N2C(=O)c3ccccc3C2=O)C(=O)N1 (stereo not drawn) [Thalidomide, reference compound]
- % of SALL4 protein reduction (SALL4; at 1 μM): >25% (>25% for 26-74% of SALL4 protein reduction)
- % of SALL4 protein reduction (SALL4; at 10 μM): >25% (>25% for 26-74% of SALL4 protein reduction)
- % of SALL4 protein reduction (SALL4; at 20 μM): ≥75% (≥75% for 75-100% of SALL4 protein reduction)
- % of IKZF1 protein reduction (IKZF1; at 1 μM): ≤25% (≤25% for 0-25% of IKZF1 protein reduction)
- % of IKZF1 protein reduction (IKZF1; at 10 μM): ≤25% (≤25% for 0-25% of IKZF1 protein reduction)
- % of IKZF1 protein reduction (IKZF1; at 20 μM): >25% (>25% for 26-74% of IKZF1 protein reduction)
- % of IKZF3 (bottom band) protein reduction (IKZF3; at 1 μM): ≤25% (≤25% for 0-25% of IKZF3 protein reduction)
- % of IKZF3 (upper band) protein reduction (IKZF3; at 1 μM): ≤25% (≤25% for 0-25% of IKZF3 protein reduction)
- % of IKZF3 (bottom band) protein reduction (IKZF3; at 10 μM): ≤25% (≤25% for 0-25% of IKZF3 protein reduction)
- % of IKZF3 (upper band) protein reduction (IKZF3; at 10 μM): ≤25% (≤25% for 0-25% of IKZF3 protein reduction)
- % of IKZF3 (bottom band) protein reduction (IKZF3; at 20 μM): >25% (>25% for 26-74% of IKZF3 protein reduction)
- % of IKZF3 (upper band) protein reduction (IKZF3; at 20 μM): >25% (>25% for 26-74% of IKZF3 protein reduction)
